Measurements taken from patent US20070179143A1 (priority 2003, published 2007).

Columns and labels:
[1] = test system: HUVEC cells; assay: Capillary-like tube formation assay; assay type: cell-based; details: HUVEC on matrigel, 24 hours
Experimental: Matrigel used in this experiment was a product of BioCoat. Matrigel was thawed in a refrigerator for 24 hours before use. Thawing matrigel, 96 well plate and yellow tip were put on ice. Then, matrigel was distributed into each well of the plate by 40 μl. The polymerization of the plate was performed in a 37° C. incubator for 30 minutes. Each well of the plate was inoculated with 180 μl of HUVEC cell solution (2×10^4 cells/m;) along with 20 μl of the compound of the Example 12 in serum-free media (0.3, 1,3, 10 and 30 μg/ml), followed by further culture for 24 hours.
Tube formation was observed under a microscope to investigate inhibition activity of angiogenesis.
Fumagilin and doxorubicin were used as a positive control.

[2] = test system: human lung cancer cell line NCI-H460; assay: Inhibiting effect on tumor growth, NCI-H460 xenografted nude mice
Experimental: Samples for the experiment were stored in a refrigerator all the time. […] The prepared sample is subject to be precipitated, so that tip sonication was performed right before the administration to disperse it well.
7 week-old female S.P.F. BALB/c nude mice, provided by Charles River Co., Japan, were used as test animals. The test animals were adapted in a Hepa-filter room over a week before the test. The temperature was 21±2° C., humidity was 55±5% and 12-hour light and dark cycle was automatically repeated in that lab. Solid feed (Cheiluedang) was sterilized by radioactive rays and drinking water was also sterilized by autoclave. Feed and water were taken by the animal freely. Cancer cell line used in this experiment was NCI-H460 (human lung tumor cell line) provided by Korea Research Institute of Bioscience and Biotechnology.
The tumor cell line, stored in liquid nitrogen, was thawed and cultured in a 37° C., 5% CO2 incubator for a required time. Upon completing the culture, all the cells were recovered and cell concentration of the culture fluid was adjusted using PBS to 3×10^7 cells/ml. The adjusted cell culture solution was injected hypodermically into armpit between right shoulder girdle and chest wall by 0.3 ml per mouse. From the next day of grafting, NCI-H460 xenografted nude mice were administered intraperitoneal everyday with the sample solution by 0.2 ml/20 g of weight, once a day.
After the grafting of tumor cells, the volume of a tumor in each individual was measured in three dimensions by using a vernier caliper, which was represented in the below <Mathematical Formula 2>. Tumor volume=(length×width×height)/2 <Mathematical Formula 2>
Body weight changes of animal were measured three times a week. Each xenografted nude mouse was sacrificed to separate a tumor, which was then weighed.

[3] = test system: SK-OV-3; assay: Cytotoxicity test to cancer cell lines (SRB method), SK-OV-3; assay type: cell-based; details: Homo sapiens, SK-OV-3, 48 h, read-out: Cytotoxicity ED50 SK-OV-3
[4] = test system: HCT-15; assay: Cytotoxicity test to cancer cell lines (SRB method), HCT-15; details: Homo sapiens, HCT-15, 48 h, read-out: Cytotoxicity ED50 HCT15
[5] = test system: SK-MEL-2; assay: Cytotoxicity test to cancer cell lines (SRB method), SK-MEL-2; assay type: cell-based; details: Homo sapiens, SK-MEL-2, 48 h, read-out: Cytotoxicity ED50 SK-MEL-2
[6] = in vivo; details: both, ICR, mouse, in vivo
Experimental: (§1) 5-week-old ICR mice having the weight of 25-35 g (SPF, SLC Co. Japan) were used as test animals. A pair of female and male of the mice was given for the test of each compound. Group T2, T3, T4 and T5 were arranged (10 animals per group) for the test of acute toxicity of the compound prepared in the Example 12. […] Control group (T1) was administered with only a solvent without the compound of the Example 12.
(§2) For comparison, colchicine was injected in the test animals by the same method as described in the above. The group treated with colchicine was composed of 6 mice.
(§3) Taxol produced by Bristol Myers Sqibb Co. was also used for comparison, and the injection and the test of acute toxicity were performed by the same method as described in the above.

[7] = test system: ICR mice; assay: in vivo; details: for Death Total: ICR mice, 7 days, deaths/animals
Experimental: as §1, §2, §3

[8] = test system: A549; assay: Cytotoxicity test to cancer cell lines (SRB method), A549; details: Homo sapiens, A549, 48 h, read-out: Cytotoxicity ED50 A549
Experimental: (§4) Cytotoxicity to A549 (Korea Research Institute of Chemical Technology), SK-OV-3 (Korea Research Institute of Chemical Technology), SK-MEL-2 (Korea Research Institute of Chemical Technology), HCT-15 (Korea Research Institute of Chemical Technology) and MCF7 (Korean Cell Line Bank, Seoul National University School of medicine) cells was measured by Sulforhodamin-B (SRB) method (1989, National Cancer Institute (NCI)) which was developed for the measurement of in vitro anticancer activity of a drug. Cells were separated using 0.25% trypsin-EDTA solution, leading to the preparation of a cell suspension by 5×10^318 2×10^4 cells/well. Then, the suspension was distributed into a 96 well plate by 100 μl/well, which was cultured in a 37° C., 5% CO2 incubator for 24 hours. Compounds prepared in examples of the present invention were used as a sample. Precisely, the compound was dissolved in dimethylsulfoxide and diluted with RPMI 1640 medium before being used as a sample. The final concentration of the sample used varied ranging 1 μM˜0.00001 μM. The medium was removed from the 96 well plate and then diluted sample solution was added by 100 μl/well, followed by further culture in a 37° C., 5% CO2 incubator for 48 hours. Tz (time zero) plate was collected from the point of adding the sample. Upon completing the culture, the medium was removed from each well along with Tz plate, then 10% trichloroacetic acid (TCA) was added by 100 μl/well. The plate was left at 4° C. for 1 hour to let cells be fixed on the floor of the plate. After cells were fixed completely, the plate was washed with water 5-6 times to remove the remaining trichloroacetic acid solution completely and moisture was completely dried at room temperature. 0.4% Sulforhodamine-B was dissolved in 1% acetic acid solution to prepare a staining solution. Cells were stained for 30 minutes with a dye added by 100 μl to each well of the completely dried plate. Then, the plate was washed with 1% acetic acid solution 5-6 times to remove sulforhodamine-B remained uncombined with cells. Then, the plate was dried at room temperature. 10 mM Tris solution was added by 100 μ/well thereto to dissolve the dye, and optical density (OD) was measured at 520 nm with a micro plate reader.
(§5) ED50 (concentration that inhibits cancer cell growth 50%, 5.0% effective dose, nM/ml) of the sample to cancer cell was calculated as follows. OD value at the point of beginning the culture with the sample was determined as Tz (time zero) value. OD value of a well to be cultured without the sample was determined as a control value (C). OD value of a well pretreated with the sample was determined as experimental value (T). After calculating Tz, C and T, cytotoxicity of the sample was measured by the below <Mathematical Formula 1>. T≦Tz, (T−Tz)/(C−Tz)×100 T>Tz, (T−Tz)/Tz×10,0 <Mathematical Formula 1>
(§6) ED50, the concentration that can inhibit cancer cell growth by 50%, was calculated by using a regression analysis of lotus program based on the degree of cytotoxicity obtained by the <Mathematical Formula 1>.

[9] = test system: MCF7; assay: Cytotoxicity test to cancer cell lines (SRB method), MCF7; details: read-out: Cytotoxicity ED50 MCF-7, MCF-7, 48 hours
Experimental: as §4, §5, §6

[10] = Body weight change of NCI-H460 xenografted nude mice; assay type: in vivo, BALB/c nude mouse
[11] = 1 mg/kg intraperitoneal once a day
[12] = 3 mg/kg intraperitoneal once a day
[13] = 10 mg/kg intraperitoneal once a day

COc1cc2c(c(OC)c1OC)-c1ccc(SC)c(=O)cc1[C@@H](NC(=O)c1cc(F)cc(CO[N+](=O)[O-])c1)CC2 [Example 12, 3-fluoro-5-nitrooxymethyl-N-[(7S)-1,2,3-trimethoxy-10-methylsulfanyl-9-oxo-5,6,7,9-tetrahydro-benzo[a]heptalen-7-yl]-benzamide]
dosage that totally inhibited angiogenesis [1]: over 10 μg/ml | dosage with angiogenesis inhibition activity ([1]; as good effect as fumagilin at 10 μg/ml): over 0.3 μg/ml | Tumor volume Day 0 [2, 11]: 0.0 ± 0.0 | Tumor volume Day 4 [2, 11]: 20.7 ± 3.1 | Tumor volume Day 7 [2, 11]: 49.2 ± 12.2 | Tumor volume Day 9 [2, 11]: 78.1 ± 13.0 | Tumor volume Day 11 [2, 11]: 146.5 ± 8.8 | Tumor Weight Day 14 [2, 11]: 950.9 ± 174.8 mg | Tumor volume Day 14 [2, 11]: 299.3 ± 41.5 | Tumor volume Day 0 [2, 12]: 0.0 ± 0.0 | Tumor volume Day 4 [2, 12]: 16.9 ± 5.1 | Tumor volume Day 7 [2, 12]: 31.2 ± 11.7 | Tumor volume Day 9 [2, 12]: 49.7 ± 15.8 | Tumor volume Day 11 [2, 12]: 96.1 ± 26.1 | Tumor Weight Day 14 [2, 12]: 714.5 ± 103.8 mg | Tumor volume Day 14 [2, 12]: 206.8 ± 48.0 | Tumor volume Day 0 [2, 13]: 0.0 ± 0.0 | Tumor volume Day 4 [2, 13]: 16.1 ± 6.7 | Tumor volume Day 7 [2, 13]: 24.6 ± 9.8 | Tumor volume Day 9 [2, 13]: 35.2 ± 12.9 | Tumor volume Day 11 [2, 13]: 69.4 ± 26.9 | Tumor Weight Day 14 [2, 13]: 390.9 ± 0 mg | Tumor volume Day 14 [2, 13]: 103.0 ± 0 | size and weight of a tumor (in words) ([2]; comparing to solvent only (V.C-1, V.C-2) or positive control (taxol, adriamycin)): remarkably decreased | EC50 [3]: 0.27 nM | EC50 [4]: 0.05 nM | EC50 [5]: 0.11 nM | LD50 [6]: 60 mg/kg | Death Total ([7]; 30 mg/kg into the abdominal cavity): 0/10 | Death Total ([7]; 40 mg/kg into the abdominal cavity): 0/10 | Death Total ([7]; 50 mg/kg into the abdominal cavity): 0/10 | Death Total ([7]; 60 mg/kg into the abdominal cavity): 0/10 | times as weak toxicity as that of colchicine ([7]; ratio of LD50): 30 times | EC50 [8]: 0.05 nM | EC50 [9]: 0.03 nM | Body weight Change Day 1 [10, 11]: 100.0 ± 0.0% | Body weight Change Day 3 [10, 11]: 105.0 ± 1.4% | Body weight Change Day 7 [10, 11]: 104.2 ± 5.3% | Body weight Change Day 9 [10, 11]: 99.6 ± 4.4 % | Body weight Change Day 11 [10, 11]: 97.5 ± 3.6 % | Body weight Change Day 14 [10, 11]: 98.3 ± 3.2 % | Body weight Change Day 1 [10, 12]: 100.0 ± 0.0% | Body weight Change Day 3 [10, 12]: 102.8 ± 2.0% | Body weight Change Day 7 [10, 12]: 101.8 ± 4.2 % | Body weight Change Day 9 [10, 12]: 99.3 ± 3.3 % | Body weight Change Day 11 [10, 12]: 99.1 ± 2.8 % | Body weight Change Day 14 [10, 12]: 94.5 ± 3.9 % | Body weight Change Day 1 [10, 13]: 100.0 ± 0.0% | Body weight Change Day 3 [10, 13]: 103.9 ± 0.9% | Body weight Change Day 7 [10, 13]: 92.2 ± 3.5 % | Body weight Change Day 9 [10, 13]: 89.4 ± 2.0 % | Body weight Change Day 11 [10, 13]: 92.3 ± 2.9 % | Body weight Change Day 14 [10, 13]: 93.4 ± 0% | decrease of the weight of the mouse ([10]; comparing to solvent only or positive control): about 10%
